Source: PubChem BioAssay AID248 (DTP/NCI, 2004)
Values joined by “and” are separate entries in the source; they are usually repeats but may differ in a detail not shown here. Identical values can stand only once. Inconclusive results and toxic doses are left out. Cut-off read from the data, not from the text of the source: active = T/C of 150% or more; inactive = T/C below 125%.

Tested on: L1210 leukemia ip in BDF1 mice, survival T/C
Test: NCI In Vivo Anticancer Drug Screen. Data for tumor model L1210 Leukemia (intraperitoneal) in B6D2F1 (BDF1) mice
Conditions: endpoint: mean survival time, higher = longer survival
How it was run: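 Each compound was tested against a transplantable tumor grown in mice. The endpoint was survival, with treated animals benchmarked against vehicle controls as a simple ratio.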

Measured: T/C

Cc1cc(=S)[nH]c2ccccc12
inactive: dose: 75.0 mg/kg/injection, schedule: Q04DX003 (ip), vehicle: saline 100 % of control | dose: 150.0 mg/kg/injection, schedule: Q04DX003 (ip), vehicle: saline 100 % of control | dose: 300.0 mg/kg/injection, schedule: Q04DX003 (ip), vehicle: saline 100 % of control

COc1ccc(NC(C)=O)cc1OC
inactive: dose: 100.0 mg/kg/injection, schedule: Q04DX002 (ip), vehicle: saline 95 % of control | dose: 200.0 mg/kg/injection, schedule: Q04DX002 (ip), vehicle: saline 98 % of control | dose: 400.0 mg/kg/injection, schedule: Q04DX002 (ip), vehicle: saline 92 % of control

CCCc1nc2ccccc2[nH]1
inactive: dose: 100.0 mg/kg/injection, schedule: Q04DX003 (ip), vehicle: saline with Tween-80 96 % of control | dose: 200.0 mg/kg/injection, schedule: Q04DX003 (ip), vehicle: saline with Tween-80 100 % of control

Clc1cc2nsnc2c2ccccc12
inactive: dose: 200.0 mg/kg/injection, schedule: Q04DX002 (ip), vehicle: gum acacia 95 % of control

CCN1C(=O)CSC1=S
inactive: dose: 100.0 mg/kg/injection, schedule: Q01DX001 (ip), vehicle: saline 101 % of control | dose: 100.0 mg/kg/injection, schedule: Q04DX003 (ip), vehicle: other 92 % of control and 96 % of control | dose: 200.0 mg/kg/injection, schedule: Q01DX001 (ip), vehicle: saline 101 % of control | dose: 200.0 mg/kg/injection, schedule: Q04DX003 (ip), vehicle: other 110 % of control and 89 % of control | dose: 400.0 mg/kg/injection, schedule: Q01DX001 (ip), vehicle: saline 102 % of control | dose: 400.0 mg/kg/injection, schedule: Q04DX003 (ip), vehicle: other 96 % of control

Cc1cc(C)c(C(=O)c2ccc([N+](=O)[O-])cc2)c(C)c1
inactive: dose: 100.0 mg/kg/injection, schedule: Q01DX009 (ip), vehicle: Klucel (hydroxypropylcellulose) (HPC) 98 % of control | dose: 100.0 mg/kg/injection, schedule: Q04DX003 (ip), vehicle: Klucel (hydroxypropylcellulose) (HPC) 105 % of control | dose: 200.0 mg/kg/injection, schedule: Q01DX009 (ip), vehicle: Klucel (hydroxypropylcellulose) (HPC) 86 % of control | dose: 200.0 mg/kg/injection, schedule: Q04DX003 (ip), vehicle: Klucel (hydroxypropylcellulose) (HPC) 95 % of control | dose: 400.0 mg/kg/injection, schedule: Q01DX009 (ip), vehicle: Klucel (hydroxypropylcellulose) (HPC) 86 % of control | dose: 400.0 mg/kg/injection, schedule: Q04DX003 (ip), vehicle: Klucel (hydroxypropylcellulose) (HPC) 94 % of control

Cc1cccc(NC(=O)OCCN(CCOC(=O)Nc2cccc(C)c2)Cc2ccccc2)c1
inactive: dose: 50.0 mg/kg/injection, schedule: Q01DX001 (ip), vehicle: carboxymethylcellulose (CMC) 90 % of control | dose: 100.0 mg/kg/injection, schedule: Q01DX001 (ip), vehicle: carboxymethylcellulose (CMC) 98 % of control | dose: 200.0 mg/kg/injection, schedule: Q01DX001 (ip), vehicle: carboxymethylcellulose (CMC) 104 % of control | dose: 400.0 mg/kg/injection, schedule: Q01DX001 (ip), vehicle: carboxymethylcellulose (CMC) 90 % of control
